Measured values published in patent US6093692A, “Method and compositions for lipidization of hydrophilic molecules” (The University of Southern California, priority 1997, dated 2000).

Key:
[1] = Plasma calcitonin and calcium after subcutaneous administration; format: in vivo, mice; conditions: s.c., 125 μg/kg in 10% Liposyn II
Description: Both CT and CT-P were iodinated with ^125 I using chloramine T method. ^125 I-CT or ^125 I-CT-P was injected s.c. into mice at a dose of 125 μg/kg in 10% Liposyn® II (Abbott). Groups of three mice were sacrificed at different time points. The levels of calcium in the blood samples were determined by using a commercial calcium diagnostic kit (Sigma Chemical Co.). The plasma from each mouse was isolated and treated with 5% trichloroacetic acid (TCA) in an ice bath. The radioactivity in the hs TCA precipitates were considered as the intact CT in the plasma.

[2] = Gastro-intestinal absorption and calcium-lowering effect after oral administration; format: in vivo, CF mice; conditions: 100 μg/kg in PBS, one hour, CT-RIA, N = 3, S.D.
Description: CT and CT-P were orally administered to CF mice using a gavaging needle at a dose of 100 μg/kg in PBS. The mice, three of each group, were sacrificed 1 hour after the treatment, and the plasma was isolated from their blood. The levels of CT and calcium were measured by using commercial CT-RIA (Phoenix) and calcium diagnostic (Sigma Chemical Co.) kits, respectively. […] Furthermore, the level of calcium in plasma at 1 hour was lower in CT-P treated mice than that in CT treated mice, which was consistent with the finding in CT levels. Because the crossreactivity of CT-P to the anti-CT antibody is only about 10%, the actual concentration of total CT in the plasma of CT-P treated mice could be even higher than the value presented in Table 5.

[3] = test system: Brattleboro rats with hereditary hypothalamic diabetes insipidus; assay: Anti-diuretic effects in rats with hereditary hypothalamic diabetes insipidus, subcutaneous; format: in vivo; conditions: s.c., 3.3 μg/kg in 10% Liposyn II, FIG. 7
Description: Brattleboro rats, which carry the hereditary disease of hypothalamic diabetes insipidus, were used to compare the effects of DP and DP-P for alleviating the disease symptoms, i.e., polyuria and polydipsia. A group of three Brattleboro rats were kept separately in three metabolic cages. Their body weight, water intake and urine output were measured every day. DP and DP-P were dissolved in 10% Liposyn® II (Abbott Laboratories, Abbott Park, Ill., USA) and injected subcutaneously (s.c.) to each rat at doses ranging from 0.02 to 20 μg/kg. […] On the other hand, DP-P at the identical dose could maintain the rats symptom-free for more than 3 days, as indicated by the reduction of both water intake and urine output without significant change of the body weight.
In order to evaluate the dose-dependent responses to DP and DP-P in Battleboro rats, the effectiveness of anti-diuretic activity was defined as the length of time that a more than 50% reduction of the urine volume can be maintained in the treated animals.

[4] = test system: mouse fibroblasts L929 cells; assay: Cellular uptake of HRPssPal; format: cell-based; conditions: 30 μg/ml, serum-free medium, 1 hour, 37° C.
Description: Confluent monolayers of mouse fibroblasts L929 cells in 6-well culture cluster plates were incubated in serum-free medium with 30 μg/ml of HRP, either as the native form or as the palmitic acid conjugate (HRPssPal). After 1 hour at 37° C., monolayers were washed three times with PBS and then dissolved in 1 ml of 0.05% of Triton-X100. Cell-associated HRP was determined by measuring the enzymatic activity in each cell extract and the results converted to ng HRP per cell monolayer. […] Therefore, a 30-fold increase in cell uptake was achieved by modification of HRP with Pal-PDC.

[5] = test system: Caco-2 monolayers; format: in vitro ADME, Human
Description: Suspended Caco-2 cells in 1.5 ml of medium were seeded into the apical chamber of the transwells at a density of 0.5 million cells per insert. 2.5 ml of the medium was then added to the basal chambers of each transwell. The cells were allowed to attach for 2 days without disturbance and were then fed every other day until the experiments were performed. The cells were maintained for approximately 14-20 days prior to the experiments and were fed 24 hr before each experiment. The cell monolayers developed a transepithelial electrical resistance (TEER) of approximately 500-600 .OMEGA.) cm^2 within one week of the seeding and maintained this resistance for up to 21 days post-seeding.
Confluent cell monolayers, 2 to 3 weeks old, and having a TEER value of approximately 500 .OMEGA. cm^2, were first incubated with Dulbecco's MEM containing 1% of FBS for 30 min at 37° C. […] At predetermined times, the entire basal chamber medium (2.5 ml) from each transwell was removed and counted for radioactivity using a gamma counter. […] After the 24 hr samples were taken, the cell monolayers were rinsed three times with ice-cold PBS, cut out of the inserts, and counted for accumulated radioactivity using a gamma counter. […]
BBI was modified with 2 or 4 palmitic acids, and the transport was determined in transwells. […]

With `CC(C)C[C@H](NC(=O)[C@H](CCCCN)NC(=O)CNC(=O)[C@H](CC(C)C)NC(=O)[C@@H](NC(=O)[C@@H]1CSSC[C@H](N)C(=O)N[C@@H](CO)C(=O)N[C@@H](CC(N)=O)C(=O)N[C@@H](CC(C)C)C(=O)N[C@@H](CO)C(=O)N[C@@H]([C@@H](C)O)C(=O)N1)C(C)C)C(=O)N[C@@H](CO)C(=O)N[C@@H](CCC(N)=O)C(=O)N[C@@H](CCC(=O)O)C(=O)N[C@@H](CC(C)C)C(=O)N[C@@H](Cc1c[nH]cn1)C(=O)N[C@@H](CCCCN)C(=O)N[C@@H](CC(C)C)C(=O)N[C@@H](CCC(N)=O)C(=O)N[C@H](C(=O)N[C@@H](Cc1ccc(O)cc1)C(=O)N1CCC[C@H]1C(=O)N[C@@H](CCCNC(=N)N)C(=O)N[C@H](C(=O)N[C@@H](CC(N)=O)C(=O)N[C@H](C(=O)NCC(=O)N[C@@H](CO)C(=O)NCC(=O)N[C@H](C(=O)N1CCC[C@H]1C(N)=O)[C@@H](C)O)[C@@H](C)O)[C@@H](C)O)[C@@H](C)O` [CT, Salmon calcitonin] the “Plasma clearance” value [1] was “rapid plasma clearance” and the “Plasma calcitonin concentration, CT” value [2] was 9.2 ± 0.7 pg/0.1 ml plasma.

In the case of `NC(=O)CC[C@@H]1NC(=O)[C@H](Cc2ccccc2)NC(=O)[C@H](Cc2ccc(O)cc2)NC(=O)CCSSC[C@@H](C(=O)N2CCC[C@H]2C(=O)N[C@H](CCCN=C(N)N)C(=O)NCC(N)=O)NC(=O)[C@H](CC(N)=O)NC1=O` [DP, Desmopressin], the “Time rats maintained symptom-free” value [3] is reported as “less than one”.

For horseradish peroxidase [HRP], the Cellular uptake [4] was 7 ng HRP per cell monolayer.

B1: BBIssPal(4): BBI modified with 4 palmitic acids (conjugate, UniProt P01055 40-110, looked up)
Bowman-Birk type proteinase …: DDESSKPCCDQCACTKSNPPQCRCSDMRLNSCHSACKSCICALSYPAQCFCVDITDFCYEPCKPSEDDKEN
modifications: 4 palmityl disulfide groups
notes: BBI modified with 4 palmitic acids
In the case of B1, the “Internalization of the conjugates into the cells (rank)” value [5] is reported as “highest uptake into the cells”.
